Experimental data as given in US20100144704A1, “Method of reducing amyloid-beta peptide levels using a bisdioxopiperazine” (priority 2006, published 2010).
Values joined by “and” are separate entries in the source; they are usually repeats but may differ in a detail not shown here. Identical values can stand only once. Blank lines part the entries; values can stand above or below the molecule they belong to.

Columns and labels:
[1] = cited from earlier work
APP = APP Western blot in SHSY-5Y cell culture; type: cell-based, human; settings: for APP, % control levels / APP, percent control levels: 16 h; for APP, % control levels: FIG. 5 study
Description: (§1) Cell Culture. The human neuroblastoma cell line, SHSY-5Y, was obtained from the American Type Culture Collection, culture medium was from Mediatech, Inc. (Herndon, Va.) and FCS from HyClone (Logan, Utah). Drug Treatment. […] Cells were allowed to grow in complete media (10% FCS, 2 mM glutamine in DMEM) for 2 days to reach 70% confluence. Thereafter, spent media was removed and replaced with fresh media (2 mL DMEM) containing 0 to 100 μM of freshly prepared compounds (clioquinol, razoxane and dexrazoxane. Cells were incubated at 37° C., 5% CO2 for 16 h. APP Western Blot and cell viability. Fifteen μg of protein from each sample was mixed with Laemmli buffer, boiled for 5 min at 100° C., and loaded onto a 10% SDS PAGE gel (Novex, San Diego, Calif.). […] The blots were incubated in secondary antibody, anti-mouse IgG—conjugated to horseradish peroxidase, for 30 min. Thereafter, samples were detected by chemiluminescence. Cell viability was assessed by a sensitive MTT assay. Values were expressed as the mean of between four and six independent assays and were statistically compared to control values. (See FIGS. 3-5).

[2] = razoxane compared to dexrazoxane
Description: The pharmacokinetics of razoxane compared to those of dexrazoxane.

[3] = test system: SHSY-5Y human neuronal cells; experiment: Cellular toxicity / cell viability by MTT assay; type: cell-based
Description: as §1

[4] = cited from earlier work; remark: listed apart in the source
[5] = in vivo; cited from earlier work
Aβ1-40 peptide = experiment: Brain Aβ1-40 by sandwich ELISA in double transgenic mice after 21 day razoxane treatment; type: in vivo; settings: for Average Conc, Aβ1-40: group average; for Conc, Aβ1-40: individual mouse cerebral cortex sample
Description: (§2) Double transgenic male mice (APP Swedish mutation+PS1 mutation) express human amyloid precursor protein (APP) and amyloid-β peptide (Aβ) within their brain and form amyloid depositions from 4 months onward. Razoxane (ICRF 159) was administered by intraperitoneal (i.p.) injection once daily for 21 consecutive days to a group of such mice, 5 to 6 months of age and approximately 22 to 28 g in weight. […] Within three hours of the final razoxane/vehicle administration, animals were killed, their brain exposed and a 50-80 mg sample of cerebral cortex collected and frozen at […].

Aβ1-42 peptide = experiment: Brain Aβ1-42 by sandwich ELISA in double transgenic mice after 21 day razoxane treatment; type: in vivo; settings: for Average Conc, Aβ1-42: group average; for Conc, Aβ1-42: individual mouse cerebral cortex sample
Description: as §2

[6] = 30 mg/kg once daily x 21 days, male 5 month old transgenic mice
[7] = razoxane 20 mg/kg i.p. once daily x 21 days
[8] = razoxane 30 mg/kg i.p. once daily x 21 days

Elimination from the body [2]: eliminated more rapidly
SMILES: CC(CN1CC(=O)NC(=O)C1)N1CC(=O)NC(=O)C1 (single isomer, unassigned; (+)) [Dexrazoxane, (+)-1,2-Bis(3,5-dioxopiperazin-1-yl)propane]
Aqueous solubility (in words) [1]: more soluble
APP, % control levels (APP; 0.5 μM): 87%
APP, % control levels (APP; 10 μM): 59%

SMILES: Oc1c(I)cc(Cl)c2cccnc12 [Clioquinol]
Cell viability ([3]; 10 μM, associated with the 18% APP decline, FIG. 4): loss of cell viability
APP, percent control levels (APP; 0.5 μM, FIG. 4): 108%
APP, percent control levels (APP; 2 μM, FIG. 4): 116%
APP, percent control levels (APP; 10 μM, FIG. 4): 82%
Effect at lowering APP (in words) (APP; FIG. 4): without affect

Elimination from the body [2]: slower elimination
SMILES: CC(CN1CC(=O)NC(=O)C1)N1CC(=O)NC(=O)C1 (racemic) [Razoxane, 1,2-bis(3,5-dioxopiperazin-1-yl)-propane]
Cellular toxicity against SHSY-5Y cells ([3]; concentrations up to 100 μM, 16 h, FIG. 3): well tolerated and without toxicity
Plasma half-life ([4]; humans): about 3.5 hours
Oral bioavailability ([4]; in vivo, po): orally bioavailable
Tolerance in humans ([4]; oral dose of 125 mg, twice a day for five days each week for up to two years): relatively well tolerated
Aqueous solubility (in words) [1]: relatively low aqueous solubility
Crossing of the blood/brain barrier [5]: cross the blood/brain barrier
APP, percent control levels (APP; 0.5 μM, FIG. 4): 81%
APP, % control levels (APP; 0.5 μM): 75%
APP, percent control levels (APP; 2 μM, FIG. 4): 60%
APP, percent control levels (APP; 10 μM, FIG. 4): 53%
APP, % control levels (APP; 10 μM): 42%
Reduction of brain Aβ1-40 compared to the control group (Aβ1-40 peptide; [6]): 46%
Average Conc, Aβ1-40 (Aβ1-40 peptide; [7]): 375 pM
Conc, Aβ1-40 (Aβ1-40 peptide; [7]): 316.435 pM and 386.757 pM and 378.84 pM and 406.557 pM and 290.284 pM and 468.154 pM
Average Conc, Aβ1-40 (Aβ1-40 peptide; [8]): 213 pM
Conc, Aβ1-40 (Aβ1-40 peptide; [8]): 162.992 pM and 310.189 pM and 295.464 pM and 129.452 pM and 134.783 pM and 244.537 pM
Reduction of brain Aβ1-42 compared to the control group (Aβ1-42 peptide; [6]): 29%
Average Conc, Aβ1-42 (Aβ1-42 peptide; [7]): 564 pM
Conc, Aβ1-42 (Aβ1-42 peptide; [7]): 489 pM and 545 pM and 533 pM and 562 pM and 553 pM and 701 pM
Average Conc, Aβ1-42 (Aβ1-42 peptide; [8]): 326 pM
Conc, Aβ1-42 (Aβ1-42 peptide; [8]): 365 pM and 504 pM and 471 pM and 216 pM and 27.2 pM and 370 pM
